{"source": "ChEMBL document CHEMBL1201862", "about": "“PubChem BioAssay data set” (2004)", "key": {"[1]": {"molecular_target": "72 kDa type IV collagenase (Homo sapiens, UniProt P08253)", "sequence (P08253 whole entry)": "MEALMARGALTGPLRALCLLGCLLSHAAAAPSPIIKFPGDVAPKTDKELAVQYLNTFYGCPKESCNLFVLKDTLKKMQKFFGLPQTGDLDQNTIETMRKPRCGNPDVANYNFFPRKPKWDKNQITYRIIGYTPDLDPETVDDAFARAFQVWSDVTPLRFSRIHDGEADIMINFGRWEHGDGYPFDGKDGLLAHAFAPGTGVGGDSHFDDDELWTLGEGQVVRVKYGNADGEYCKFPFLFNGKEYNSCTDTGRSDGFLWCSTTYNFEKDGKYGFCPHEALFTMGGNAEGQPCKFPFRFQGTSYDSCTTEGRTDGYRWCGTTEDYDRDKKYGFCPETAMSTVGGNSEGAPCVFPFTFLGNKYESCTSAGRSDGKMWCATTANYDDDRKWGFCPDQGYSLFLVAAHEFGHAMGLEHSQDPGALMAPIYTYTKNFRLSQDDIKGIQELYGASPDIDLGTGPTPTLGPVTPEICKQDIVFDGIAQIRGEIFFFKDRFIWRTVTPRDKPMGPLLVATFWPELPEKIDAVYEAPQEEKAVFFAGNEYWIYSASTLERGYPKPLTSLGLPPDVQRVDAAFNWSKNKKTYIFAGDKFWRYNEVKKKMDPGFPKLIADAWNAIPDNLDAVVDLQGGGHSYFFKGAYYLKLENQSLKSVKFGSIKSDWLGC", "experiment": "Dose Response validation of uHTS RPN11 inhibitor hits using a MMP-2 Fluorescence assay.", "assay_type": "functional"}, "H9c2": {"test_system": "H9c2", "experiment": "cells", "assay_type": "functional, cell-based", "conditions": "Rattus norvegicus, H9c2, Myocardium"}, "Prothrombin": {"molecular_target": "Prothrombin (Bos taurus, UniProt P00735)", "experiment": "thrombin inhibition, dose response, biochemical, fluorescence polarization, uHTS hits (AID 602369)", "assay_type": "functional"}, "[2]": {"molecular_target": "26S proteasome non-ATPase regulatory subunit 14 (Homo sapiens, UniProt O00487)", "sequence (O00487 whole entry)": "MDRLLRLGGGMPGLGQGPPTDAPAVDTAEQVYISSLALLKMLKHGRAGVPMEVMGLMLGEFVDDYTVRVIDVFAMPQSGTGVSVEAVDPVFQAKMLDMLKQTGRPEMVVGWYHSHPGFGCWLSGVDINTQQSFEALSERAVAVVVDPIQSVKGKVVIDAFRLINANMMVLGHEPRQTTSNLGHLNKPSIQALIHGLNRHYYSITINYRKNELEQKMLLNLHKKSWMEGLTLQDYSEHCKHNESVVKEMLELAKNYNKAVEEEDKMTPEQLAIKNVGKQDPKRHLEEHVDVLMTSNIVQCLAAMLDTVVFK", "experiment": "inhibition of proteasome subunit RPN11 – biochemical, fluorescence polarization, uHTS hits, confirmation (AID 602368)", "assay_type": "functional"}, "[3]": {"molecular_target": "T1, Sentrin-specific protease 8 (Homo sapiens, UniProt Q96LD8)", "T1 sequence (Q96LD8 whole entry)": "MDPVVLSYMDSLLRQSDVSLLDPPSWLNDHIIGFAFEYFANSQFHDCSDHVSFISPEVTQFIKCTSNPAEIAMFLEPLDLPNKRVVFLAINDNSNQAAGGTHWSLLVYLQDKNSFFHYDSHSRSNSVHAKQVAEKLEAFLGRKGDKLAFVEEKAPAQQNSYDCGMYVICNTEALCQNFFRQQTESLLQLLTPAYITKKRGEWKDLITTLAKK", "assay_type": "functional"}, "[4]": {"molecular_target": "T1, Sentrin-specific protease 8", "assay_type": "functional", "remark": "listed apart in the source"}, "[5]": {"molecular_target": "T2, Apoptotic protease-activating factor 1 (Homo sapiens, UniProt O14727)", "T2 sequence (O14727 whole entry)": "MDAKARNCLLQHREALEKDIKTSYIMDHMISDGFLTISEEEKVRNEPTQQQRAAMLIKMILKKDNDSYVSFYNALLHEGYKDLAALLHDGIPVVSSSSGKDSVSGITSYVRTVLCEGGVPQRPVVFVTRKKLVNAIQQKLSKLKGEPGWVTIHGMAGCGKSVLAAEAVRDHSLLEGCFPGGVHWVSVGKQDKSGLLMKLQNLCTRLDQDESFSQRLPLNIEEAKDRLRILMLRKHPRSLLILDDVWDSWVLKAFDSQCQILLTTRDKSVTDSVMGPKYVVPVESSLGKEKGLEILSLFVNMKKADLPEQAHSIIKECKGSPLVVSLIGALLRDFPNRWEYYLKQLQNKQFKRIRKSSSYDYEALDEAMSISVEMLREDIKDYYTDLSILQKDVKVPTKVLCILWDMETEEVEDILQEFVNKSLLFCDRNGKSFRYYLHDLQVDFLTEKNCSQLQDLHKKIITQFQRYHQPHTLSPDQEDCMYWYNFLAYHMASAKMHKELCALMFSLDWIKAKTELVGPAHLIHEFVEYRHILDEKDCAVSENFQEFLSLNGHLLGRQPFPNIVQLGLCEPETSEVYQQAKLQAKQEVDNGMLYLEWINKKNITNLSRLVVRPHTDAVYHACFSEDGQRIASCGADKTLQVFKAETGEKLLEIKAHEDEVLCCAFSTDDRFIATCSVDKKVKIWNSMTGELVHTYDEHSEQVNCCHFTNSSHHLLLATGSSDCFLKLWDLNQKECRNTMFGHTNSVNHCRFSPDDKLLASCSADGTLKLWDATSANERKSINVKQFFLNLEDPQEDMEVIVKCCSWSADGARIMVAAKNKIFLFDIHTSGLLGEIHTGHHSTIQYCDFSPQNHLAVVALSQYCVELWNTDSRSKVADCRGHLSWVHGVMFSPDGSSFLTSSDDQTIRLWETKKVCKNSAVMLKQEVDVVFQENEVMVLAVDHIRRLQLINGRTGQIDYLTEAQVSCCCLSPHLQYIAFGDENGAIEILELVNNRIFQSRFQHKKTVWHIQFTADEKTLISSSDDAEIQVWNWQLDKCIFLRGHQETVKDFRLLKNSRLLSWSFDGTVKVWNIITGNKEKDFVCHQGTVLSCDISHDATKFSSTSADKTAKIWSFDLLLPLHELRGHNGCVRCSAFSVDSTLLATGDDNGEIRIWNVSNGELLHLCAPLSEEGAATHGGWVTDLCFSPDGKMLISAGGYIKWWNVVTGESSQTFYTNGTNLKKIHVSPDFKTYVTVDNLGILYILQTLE", "assay_type": "functional"}, "P388": {"test_system": "P388", "experiment": "cells", "assay_type": "functional", "conditions": "Mus musculus"}, "Caspase-6": {"molecular_target": "T3, Caspase-6 (Homo sapiens, UniProt P55212)", "T3 sequence (P55212 whole entry)": "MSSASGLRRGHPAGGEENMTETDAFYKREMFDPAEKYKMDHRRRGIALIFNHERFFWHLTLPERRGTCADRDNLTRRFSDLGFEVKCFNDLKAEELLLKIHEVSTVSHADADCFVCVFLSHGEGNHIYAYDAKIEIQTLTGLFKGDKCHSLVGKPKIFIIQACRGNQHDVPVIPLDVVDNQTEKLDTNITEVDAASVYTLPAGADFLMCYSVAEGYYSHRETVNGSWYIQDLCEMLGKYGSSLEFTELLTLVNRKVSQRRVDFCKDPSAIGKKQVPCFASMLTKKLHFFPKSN", "experiment": "human caspase-6 inhibitors, dose response, biochemical, VEID-R110 fluorescence, cherry-pick (AID 720632)"}, "SN12K1": {"test_system": "SN12K1", "experiment": "cells", "assay_type": "functional", "conditions": "Homo sapiens"}, "P388/ADR": {"test_system": "P388/ADR", "experiment": "cells", "assay_type": "functional", "conditions": "Mus musculus"}, "[6]": {"molecular_target": "T4, Sentrin-specific protease 1 (Homo sapiens, UniProt Q9P0U3)", "T4 sequence (Q9P0U3 whole entry)": "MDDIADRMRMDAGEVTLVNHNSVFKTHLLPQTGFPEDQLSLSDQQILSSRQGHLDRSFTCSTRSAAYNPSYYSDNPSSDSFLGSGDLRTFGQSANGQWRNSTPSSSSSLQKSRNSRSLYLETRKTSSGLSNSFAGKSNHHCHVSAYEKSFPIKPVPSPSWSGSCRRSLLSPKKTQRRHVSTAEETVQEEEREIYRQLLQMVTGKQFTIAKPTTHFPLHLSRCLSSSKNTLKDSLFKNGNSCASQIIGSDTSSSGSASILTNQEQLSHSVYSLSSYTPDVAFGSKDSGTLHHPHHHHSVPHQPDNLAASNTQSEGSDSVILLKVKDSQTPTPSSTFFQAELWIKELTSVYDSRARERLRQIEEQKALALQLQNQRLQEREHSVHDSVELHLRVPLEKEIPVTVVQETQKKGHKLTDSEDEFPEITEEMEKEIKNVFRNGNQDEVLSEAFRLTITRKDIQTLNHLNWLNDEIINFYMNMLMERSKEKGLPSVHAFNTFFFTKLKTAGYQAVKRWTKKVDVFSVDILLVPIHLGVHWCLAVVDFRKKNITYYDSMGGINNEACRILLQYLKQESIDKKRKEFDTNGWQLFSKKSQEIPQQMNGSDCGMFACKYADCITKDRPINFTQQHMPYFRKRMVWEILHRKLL", "experiment": "Dose response confirmation of small molecule inhibitors of the catalytic domain of the SUMO protease, SENP1 in a FRET assay.", "assay_type": "functional", "conditions": "read-out: IC50_Mean"}, "[7]": {"molecular_target": "T4, Sentrin-specific protease 1", "experiment": "potency of human SENP1 inhibitors, dose response, biochemical, kinetic FRET (AID 651697)", "assay_type": "functional", "conditions": "read-out: IC50_Mean"}, "[8]": {"molecular_target": "T5, Rac GTPase-activating protein 1 (Homo sapiens, UniProt Q9H0H5)", "T5 sequence (Q9H0H5 whole entry)": "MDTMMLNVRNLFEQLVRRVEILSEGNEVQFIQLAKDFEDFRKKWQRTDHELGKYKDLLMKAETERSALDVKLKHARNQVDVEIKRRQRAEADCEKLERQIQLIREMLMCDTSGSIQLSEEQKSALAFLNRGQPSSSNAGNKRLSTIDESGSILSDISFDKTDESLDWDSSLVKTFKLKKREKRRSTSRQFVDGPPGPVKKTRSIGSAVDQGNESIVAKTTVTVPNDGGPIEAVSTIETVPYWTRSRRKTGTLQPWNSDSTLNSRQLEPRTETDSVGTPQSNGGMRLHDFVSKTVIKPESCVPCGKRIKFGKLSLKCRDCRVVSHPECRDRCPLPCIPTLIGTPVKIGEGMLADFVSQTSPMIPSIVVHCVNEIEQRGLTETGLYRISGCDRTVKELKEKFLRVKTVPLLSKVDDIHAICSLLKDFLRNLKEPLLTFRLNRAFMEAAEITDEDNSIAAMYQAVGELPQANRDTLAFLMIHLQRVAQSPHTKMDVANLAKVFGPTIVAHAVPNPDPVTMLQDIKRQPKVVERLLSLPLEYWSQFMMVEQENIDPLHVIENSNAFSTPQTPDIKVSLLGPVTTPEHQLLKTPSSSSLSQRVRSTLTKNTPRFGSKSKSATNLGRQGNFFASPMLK", "experiment": "MgcRacGAP GTPase-activating activity inhibitors, confirmation, biochemical, ADP Hunter fluorescence, primary and confirmatory (AID 624330)", "assay_type": "functional"}, "[9]": {"molecular_target": "T6, Latent membrane protein 1 (Human herpesvirus 4 (strain B95-8), UniProt P03230)", "T6 sequence (P03230 whole entry)": "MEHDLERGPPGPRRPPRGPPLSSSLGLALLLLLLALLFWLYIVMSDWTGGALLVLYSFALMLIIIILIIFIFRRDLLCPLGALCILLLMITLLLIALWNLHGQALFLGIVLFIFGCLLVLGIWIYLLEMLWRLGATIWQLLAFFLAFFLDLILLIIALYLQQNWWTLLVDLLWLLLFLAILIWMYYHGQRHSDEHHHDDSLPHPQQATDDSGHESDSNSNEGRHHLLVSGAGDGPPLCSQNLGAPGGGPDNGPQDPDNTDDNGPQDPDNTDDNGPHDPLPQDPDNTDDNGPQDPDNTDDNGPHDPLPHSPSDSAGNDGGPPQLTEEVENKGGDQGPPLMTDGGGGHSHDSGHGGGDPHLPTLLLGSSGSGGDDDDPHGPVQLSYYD", "experiment": "TES1-eGFP NF-kB reporter inhibition versus Tet-On dsRED, dose response, selectivity assay for LMP1 NF-kB inhibitor project, imaging, HEK293T, dual-color eGFP/dsRED, cherry-picks (AID 588398)", "assay_type": "functional, cell-based"}, "HEK293": {"test_system": "HEK293", "experiment": "inhibitors of LMP1-driven NF-kB reporter, dose response, cell-based, HEK293, luciferase, cherry-pick (AID 588343)", "assay_type": "functional", "conditions": "Homo sapiens"}, "[10]": {"molecular_target": "T7, Probable nicotinate-nucleotide adenylyltransferase (Staphylococcus aureus (strain N315), UniProt P65502)", "T7 sequence (P65502 whole entry)": "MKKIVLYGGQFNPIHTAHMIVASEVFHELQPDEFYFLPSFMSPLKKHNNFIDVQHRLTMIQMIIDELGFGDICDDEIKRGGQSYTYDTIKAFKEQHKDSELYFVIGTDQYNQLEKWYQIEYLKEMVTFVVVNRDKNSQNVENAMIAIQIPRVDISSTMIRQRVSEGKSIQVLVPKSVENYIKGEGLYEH", "assay_type": "functional, Staphylococcus aureus subsp. aureus N315", "conditions": "read-out: IC50_Mean"}, "[11]": {"molecular_target": "T7, Probable nicotinate-nucleotide adenylyltransferase", "assay_type": "functional, Staphylococcus aureus subsp. aureus N315"}}, "note": "Activity calls are given as the source filed them."}
{"smiles": "COc1ccc(-c2ccc3c(c2)S(=O)(=O)c2cccc(C(=O)N4CCN(c5c(Cl)cncc5Cl)CC4)c2C3=O)cc1OC", "values": [{"measurement": "IC50", "setting": "[1]", "value": "> 100 µM (inactive)"}, {"measurement": "IC50", "setting": "H9c2", "value": "> 79 µM (inactive)"}, {"measurement": "IC50", "setting": "Prothrombin", "value": "29.3 µM (active)"}, {"measurement": "IC50", "setting": "[2]", "value": "21.7 µM (active)"}]}
{"smiles": "Cn1c(=O)[nH]c2nncnc2c1=O", "values": [{"measurement": "IC50", "setting": "[3]", "value": "2.08 µM (active)"}, {"measurement": "IC50", "setting": "[4]", "value": "1.62 µM (active)"}, {"measurement": "IC50", "setting": "[5]", "value": "15.4 µM (active)"}, {"measurement": "GI50", "setting": "P388", "value": "25.8 µM (inactive)"}, {"measurement": "AC50", "setting": "Caspase-6", "value": "7.06 µM (active)"}, {"measurement": "GI50", "setting": "SN12K1", "value": "65.8 µM (inactive)"}, {"measurement": "GI50", "setting": "P388/ADR", "value": "213 µM (inactive)"}]}
{"smiles": "CCOC(=O)C1CCCN(C2=NC(=O)/C(=C/c3ccc(O)c(OC)c3)S2)C1", "note": "(stereo unspecified)", "values": [{"measurement": "IC50", "setting": "[6]", "value": "2.49 µM (active)"}, {"measurement": "IC50", "setting": "[7]", "value": "2.97 µM (active)"}, {"measurement": "IC50", "setting": "[8]", "value": "19.6 µM (active)"}, {"measurement": "IC50", "setting": "[1]", "value": "> 100 µM (inactive)"}, {"measurement": "IC50", "setting": "Prothrombin", "value": "40.6 µM (active)"}, {"measurement": "IC50", "setting": "[2]", "value": "26.3 µM (active)"}]}
{"smiles": "CCn1c2ccccc2c2cc(/C=N/n3c(S)nnc3-c3cc(C)[nH]n3)ccc21", "values": [{"measurement": "AC50", "setting": "[9]", "value": "0.288 µM (active)"}, {"measurement": "AC50", "setting": "HEK293", "value": "8.12 µM (active)"}, {"measurement": "IC50", "setting": "[10]", "value": "33.7 µM (active)"}, {"measurement": "IC50", "setting": "[11]", "value": "8.02 µM (active)"}]}
